In US4851385A, “LHRH antagonist analogs having low histamine-release activity” (Indiana University Foundation, priority 1987, dated 1989):
Where a SMILES comes first, the peptide text is derived from it. [ ]: non-standard residue; d: D form. dPhe(4-Cl) = N[C@H](Cc1ccc(Cl)cc1)C(=O)O; d2Nal = N[C@H](Cc1ccc2ccccc2c1)C(=O)O

Key:
[1] = system: histamine release; conditions: cited from earlier work
[2] = system: rat; assay: Standard antiovulatory assay (Corbin and Beattie); format: in vivo
Procedure: Antiovulatory activity was determined by standard antiovulatory assays conducted by the method described by Corbin and Beattie, Endocrine Research Communications 2 1 (1975) and results are given in Table I.

[3] = system: rat mast cells; assay: In vitro histamine releasing activity assay (rat peritoneal mast cell suspension, fluorometric histamine assay); format: cell-based; conditions: mean effective dose from dose response curves, 15 min at 37° C., duplicate or triplicate, cells from at least three rats
Procedure: The in vitro histamine release activity of the analogs was assayed by the method described below and the results are given in Table I.
A suspension of rat mast cells was added to increasing concentrations of peptide and the mixture was incubated for a few minutes followed by centrifugation to collect the histamine in the supernatant. A PIPES (piperazine-N,N'-bis[2-ethanesulfonic acid]) medium buffered at pH 7.4 containing NaCl119 mM, KCl5 mM, PIPES 25mM, NaOH 40 mM, glucose 5.6 mM, CaCl2 1 mM and 0.1% bovine serum albumin was used. This was designated as PIPES AC. Peptides were dissolved in double distilled H2 O at a concentration of 2 mg ml and stored at -20° C. They were thawed just prior to testing, duluted in PIPES AC and prewarmed for 5 min. at 37° C. Peptides studied were stable to heating at 56° C. for 2 hr., and to freezing and thawing.
Peritoneal cells were collected from male Sprague-Dawley rats weighing 200 to 250 gm and purchased from Harlan (Madison, Wis.). After euthanasia by CO2, the peritoneal cavity was washed with 50 ml PIPES AC medium containing 20 units of heparin. Following centrifugation at 200×g for 8 min. at 4° C., cells were washed again and finally resuspended to a concentration of 8 to 24×10^5 total leukocytes/ml in PIPES AC. This suspension contained approximately 5-10% mast cells. […]

[4] = system: rat mast cells; conditions: mast cell supernatants assayed concomitantly for lactic dehydrogenase
Excerpt: The ED50 values of Table I (mean effective dose from dose response curves), are expressed in μg/ml. […] For routine testing, mast cells were not purified.

## CC(=O)N[C@H](Cc1ccc2ccccc2c1)C(=O)N[C@H](Cc1ccc(Cl)cc1)C(=O)N[C@H](Cc1c[nH]c2ccccc12)C(=O)N[C@@H](CO)C(=O)N[C@@H](Cc1ccc(O)cc1)C(=O)N[C@H](CCCNC(=N)N)C(=O)N[C@@H](CC(C)C)C(=O)N[C@@H](CCCNC(=N)N)C(=O)N1CCC[C@H]1C(=O)N[C@H](C)C(N)=O [Compound 1, [N-Ac-D-Nal(2)^1, D-p-Cl-Phe^2, D-Trp^3, D-Arg^6, D-Ala^10] LHRH] (Ac-[d2Nal][dPhe(4-Cl)][dW]SY[dR]LRP[dA]-NH2)
[1]; Karten and Rivier 1986
  histamine releasing activity (in words): potent histamine releasing anlog

## [Ac-D-2-Nal^1, D-4-C1-Phe^2, D-Trp^3, D-N^ε -Heptyl Lys, Nε-Heptyl Lys^8, D-Ala^10 ]LHRH
[2]; N-alkylation of Lys 6 and 8 with a 7-carbon moiety
  antiovulatory activity (in words): lowers antiovulatory activity markedly

## [Ac-2-D-Nal^1, α-Me-4-C1-D-Phe^2, D-Trp^3, Arg^5, D-Tyr^6, D-Ala^10 ] LHRH
[1]; Roeske et al. 1985
  times less potent in histamine releasing activity than the synthetic D-Arg6 antagonists: 20-40 times

## [N--Ac--D-Nal(2)^1,D-C--α-Me--pCl--Phe^2,D-Pal(3)^3,D-Arg^6,hArg(Et2)^8,D-Ala^10 ]LHRH [Compound 2]
[3]
  In Vitro Histamine Release ED50: 4.9 µg/mL
[2]; corn oil vehicle, ≥ = significant reduction in rats ovulating but ED100 not achieved at the dose, ≥≥ = inactive at the dose tested
  Ovulation Inhibition, Corn Oil, ED100: 1.0 ug/rat

## CC(C)C[C@H](NC(=O)CNC(=O)[C@H](Cc1ccc(O)cc1)NC(=O)[C@H](CO)NC(=O)[C@H](Cc1c[nH]c2ccccc12)NC(=O)[C@H](Cc1cnc[nH]1)NC(=O)[C@@H]1CCC(=O)N1)C(=O)N[C@@H](CCCNC(=N)N)C(=O)N1CCC[C@H]1C(=O)NCC(N)=O [LHRH, luteinizing hormone-releasing hormone]
[4]
  cell toxicity by release of lactic dehydrogenase: no evidence seen of cell toxicity

## [N-Ac-D-Nal(2)^1, D-pC1-Phe^2, D-Pal^3, Arg^5, D-Tyr^6, D-Ala^10 ]LHRH
[1]; from Roeske et al. 1985
  mean effective dose for histamine release (known analog): about 4.0 ug/ml
